The values below come from ChEMBL document CHEMBL1201862, “PubChem BioAssay data set” (2004).

The target of series [1] is T1, Type-1 angiotensin II receptor (Homo sapiens, UniProt P30556).
T1 sequence (P30556 whole entry): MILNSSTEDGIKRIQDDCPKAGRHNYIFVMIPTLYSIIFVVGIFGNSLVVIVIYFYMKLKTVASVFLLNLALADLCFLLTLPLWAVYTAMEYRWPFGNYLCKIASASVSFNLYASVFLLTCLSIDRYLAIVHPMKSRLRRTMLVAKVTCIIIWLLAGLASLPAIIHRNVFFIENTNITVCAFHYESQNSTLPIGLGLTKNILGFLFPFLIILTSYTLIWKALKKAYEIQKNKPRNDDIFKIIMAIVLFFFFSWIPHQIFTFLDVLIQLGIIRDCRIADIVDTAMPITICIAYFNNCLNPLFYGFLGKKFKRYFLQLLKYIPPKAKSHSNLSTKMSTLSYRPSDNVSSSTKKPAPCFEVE
In words: AT1 receptor agonists, dose response, selectivity assay for APJ receptor agonist project, cell-based, uHTS hits (AID 488865).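 Further: beta-arrestin recruitment to AT1 measured by enzyme fragment complementation luminescence.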 It is filed as functional.

A further series concerns the target Integrin alpha-L (Mus musculus, UniProt P24063). In words: modulators of CD8 T cell-vesicle binding, dose response, powder samples, mouse 2C CD8+ cells (AID 504565). It counts as functional.
The target in a further series is CAAX prenyl protease 1 (Saccharomyces cerevisiae S288c, UniProt P47154). In words: Ste24 protease inhibitors, dose response, biochemical, S. cerevisiae, plate reader, cherry-pick (AID 488815).
Series [2] has as its target T2, G-protein coupled receptor 55 (Homo sapiens, UniProt Q9Y2T6). In words: GPR55 agonists via beta-arrestin recruitment, primary screen, imaging, U2OS cells, beta-arrestin-GFP redistribution (AID 1961). It is filed as functional. (In general: Recruitment of arrestin is a read-out of receptor activation apart from second messengers.)
Series [3] has as its target T2, G-protein coupled receptor 55. In words: GPR55 antagonists blocking LPI-driven arrestin recruitment, primary screen, imaging, U2OS, beta-arrestin-GFP, LPI agonist (AID 2013).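 Further: antagonist potency measured as reduced agonist-driven arrestin aggregation.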 It counts as functional.
Series [4] can be described thus: HEp-2 cell cytotoxicity, dose response, cytotoxicity control for RSV inhibitor project, HTS (AID 2410). It counts as functional. The following applies: human respiratory syncytial virus.
For a further series, the target named is Cytochrome P450 2C19 (Homo sapiens, UniProt P33261). In words: Cytochrome panel assay with activity outcomes. Panel member name: p450-cyp2c19 Compounds with AC50 equal or less than 10 uM are considered active. It is filed as functional.
For another series, the target named is Cytochrome P450 2D6 (Homo sapiens, UniProt P10635).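 Further: CYP2D6 member of a cytochrome P450 panel assay.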

The source made the active and inactive calls.

T2 sequence (Q9Y2T6 whole entry): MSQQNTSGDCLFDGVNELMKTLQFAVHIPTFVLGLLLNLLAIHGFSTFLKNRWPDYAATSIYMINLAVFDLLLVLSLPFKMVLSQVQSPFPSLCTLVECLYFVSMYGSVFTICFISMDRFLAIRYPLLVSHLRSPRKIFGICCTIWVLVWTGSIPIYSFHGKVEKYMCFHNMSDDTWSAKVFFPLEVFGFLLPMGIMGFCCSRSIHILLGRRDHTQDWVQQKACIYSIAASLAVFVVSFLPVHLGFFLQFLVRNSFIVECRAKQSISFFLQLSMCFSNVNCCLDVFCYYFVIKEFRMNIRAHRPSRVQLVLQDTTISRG
CAAX prenyl protease 1, sequence (P47154 whole entry): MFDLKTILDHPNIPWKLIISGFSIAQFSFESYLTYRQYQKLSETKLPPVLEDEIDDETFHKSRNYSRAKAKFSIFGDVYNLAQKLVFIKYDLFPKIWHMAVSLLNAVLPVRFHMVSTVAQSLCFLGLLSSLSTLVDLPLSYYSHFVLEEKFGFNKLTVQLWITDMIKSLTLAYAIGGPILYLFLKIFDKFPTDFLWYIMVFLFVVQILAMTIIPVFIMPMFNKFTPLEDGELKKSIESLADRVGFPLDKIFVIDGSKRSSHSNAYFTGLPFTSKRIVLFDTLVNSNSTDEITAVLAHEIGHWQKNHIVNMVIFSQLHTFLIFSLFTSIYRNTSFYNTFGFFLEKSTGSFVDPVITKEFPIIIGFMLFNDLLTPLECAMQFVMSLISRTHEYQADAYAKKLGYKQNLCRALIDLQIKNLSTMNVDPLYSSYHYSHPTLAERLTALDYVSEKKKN
Cytochrome P450 2C19, sequence (P33261 whole entry): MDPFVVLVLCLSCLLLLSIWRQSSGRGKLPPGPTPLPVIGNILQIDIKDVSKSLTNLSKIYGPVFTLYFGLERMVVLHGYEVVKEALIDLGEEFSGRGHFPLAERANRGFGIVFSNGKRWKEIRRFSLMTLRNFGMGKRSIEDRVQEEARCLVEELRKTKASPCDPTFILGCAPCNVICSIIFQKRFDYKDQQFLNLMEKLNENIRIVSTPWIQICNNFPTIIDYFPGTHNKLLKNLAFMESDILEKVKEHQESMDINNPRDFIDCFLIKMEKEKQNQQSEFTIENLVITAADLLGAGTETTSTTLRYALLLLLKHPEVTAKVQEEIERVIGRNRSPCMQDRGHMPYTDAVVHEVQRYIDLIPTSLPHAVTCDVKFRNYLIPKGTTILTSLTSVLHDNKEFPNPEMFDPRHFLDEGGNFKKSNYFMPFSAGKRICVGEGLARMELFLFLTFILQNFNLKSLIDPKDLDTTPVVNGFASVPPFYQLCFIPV
Cytochrome P450 2D6, sequence (P10635 whole entry): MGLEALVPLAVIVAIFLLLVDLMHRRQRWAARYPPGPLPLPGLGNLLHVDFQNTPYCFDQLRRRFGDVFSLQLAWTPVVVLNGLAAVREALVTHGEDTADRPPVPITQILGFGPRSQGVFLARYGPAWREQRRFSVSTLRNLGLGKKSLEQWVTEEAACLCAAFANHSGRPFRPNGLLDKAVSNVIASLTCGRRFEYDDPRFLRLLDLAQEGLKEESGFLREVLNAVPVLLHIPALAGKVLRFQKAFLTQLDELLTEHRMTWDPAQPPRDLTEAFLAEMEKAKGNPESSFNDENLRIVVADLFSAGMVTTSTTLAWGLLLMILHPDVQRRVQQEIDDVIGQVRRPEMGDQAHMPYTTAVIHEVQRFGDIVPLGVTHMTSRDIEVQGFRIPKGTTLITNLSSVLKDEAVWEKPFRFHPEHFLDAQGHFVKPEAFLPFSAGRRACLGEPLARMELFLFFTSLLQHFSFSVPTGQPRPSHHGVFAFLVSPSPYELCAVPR
Integrin alpha-L, sequence (P24063 whole entry): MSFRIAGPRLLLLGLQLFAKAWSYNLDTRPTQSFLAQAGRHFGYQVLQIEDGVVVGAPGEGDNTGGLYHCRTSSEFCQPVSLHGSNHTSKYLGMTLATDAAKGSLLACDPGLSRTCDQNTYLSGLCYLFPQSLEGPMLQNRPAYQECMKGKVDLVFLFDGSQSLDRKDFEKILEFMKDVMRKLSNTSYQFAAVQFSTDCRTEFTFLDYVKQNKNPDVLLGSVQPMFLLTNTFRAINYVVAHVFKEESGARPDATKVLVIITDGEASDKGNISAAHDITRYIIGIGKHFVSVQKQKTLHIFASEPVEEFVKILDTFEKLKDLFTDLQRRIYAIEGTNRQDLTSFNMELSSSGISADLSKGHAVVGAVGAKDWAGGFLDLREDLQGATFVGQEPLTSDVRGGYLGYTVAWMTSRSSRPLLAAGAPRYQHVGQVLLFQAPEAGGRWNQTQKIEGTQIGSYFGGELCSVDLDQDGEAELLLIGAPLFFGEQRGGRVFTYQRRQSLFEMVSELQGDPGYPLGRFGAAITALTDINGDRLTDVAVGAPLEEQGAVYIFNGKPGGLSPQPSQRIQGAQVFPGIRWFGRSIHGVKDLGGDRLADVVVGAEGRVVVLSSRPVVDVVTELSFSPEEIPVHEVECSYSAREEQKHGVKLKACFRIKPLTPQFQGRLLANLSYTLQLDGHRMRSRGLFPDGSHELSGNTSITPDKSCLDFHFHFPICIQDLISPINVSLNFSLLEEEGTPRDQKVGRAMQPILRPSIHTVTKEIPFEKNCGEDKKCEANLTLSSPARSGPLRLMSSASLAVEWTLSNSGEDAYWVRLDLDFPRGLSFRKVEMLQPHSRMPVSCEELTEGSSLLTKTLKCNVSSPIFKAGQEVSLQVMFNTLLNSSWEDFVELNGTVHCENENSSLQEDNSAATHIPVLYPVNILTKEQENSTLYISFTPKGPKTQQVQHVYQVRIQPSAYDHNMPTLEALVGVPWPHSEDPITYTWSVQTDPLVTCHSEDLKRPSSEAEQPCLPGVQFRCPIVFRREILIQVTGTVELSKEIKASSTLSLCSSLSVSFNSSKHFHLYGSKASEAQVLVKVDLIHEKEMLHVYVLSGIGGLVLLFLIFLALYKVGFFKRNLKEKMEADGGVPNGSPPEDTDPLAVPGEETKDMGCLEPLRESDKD

Regarding `COC(=O)CCCC1=CC2=CC(=O)C(C)(OC(=O)c3cccs3)C(=O)C2=CN1C1CCCCC1` (stereo not drawn), in series [1], the EC50 (as a rule, the concentration that produces a half-maximal response) is > 100 µM (inactive).
With `Cc1cc(C)n(C(=O)c2sc3cc(F)ccc3c2Cl)n1`, on Integrin alpha-L, the EC50 was 299 nM (active).
Turning to `CCN=C(S)NNC(=O)CCn1cc(C)cn1`, at CAAX prenyl protease 1, the AC50 (as a rule, the concentration giving half of the maximal activity seen) is 32.4 µM (active).
On to `CCN(CC)S(=O)(=O)c1ccc(OC)c(NC(=O)C(C)Oc2ccc3c(C)cc(=O)oc3c2)c1` (stereo not drawn), for which the EC50 in series [2] is 16.4 µM (inactive).
On to `COc1ccc(-c2csc(Nc3ccc(S(=O)(=O)Nc4cc(OC)nc(OC)n4)cc3)n2)cc1`, for which, in series [3], the IC50 (usually the concentration at which inhibition is half-maximal) was 4.76 µM (active). Also, the CC50 (in general, the concentration that lowers cell viability or growth by half) in series [4] was 15.2 µM (active).
As to `CC1=N/C(=C\c2ccc([N+](=O)[O-])cc2)C(=O)N1c1ccc(Cl)cc1`, the AC50 entry at Cytochrome P450 2C19 and at Cytochrome P450 2D6 was “inconclusive” each time.
